Results reported in US10561735B2, “Solid formulations of liquid biologically active agents” (Paladin Labs Inc., priority 2004, dated 2020).
≈ marks a conversion by molar mass, not a printed value.

Key:
[1] = Reconstitution of lyophilized cake: time, appearance, visual stability (no precipitation or phase separation); format: physicochemical; conditions: PVP-PLA 90 mg/mL, 75 mM sodium phosphate buffer pH 7.4
Method: PVP-PDLLA (POLYMER 1 and POLYMER 2) samples were dissolved in mixtures of water and various amounts of tert-butyl alcohol (TBA). Propofol is then added to the PVP-PDLLA solution. Water is then added to the TBA/PVP-PDLLA/propofol solution to the desired final volume. Final TBA concentration in these solutions was 10-30%. Drug loading levels, % w/w of propofol/(propofol PVP-PDLLA), were also varied from 5, 7, 8, 10, 12, 15 and 20%. Solutions were then frozen in a dry ice/acetone bath and lyophilized for at least 24 hours.
PVP-PDLLA (POLYMER 1) is dissolved directly in water at concentrations between 100 to 350 mg/mL. Propofol is added to the PVP-PDLLA solution and mixed until a homogenous solution is obtained. The solution is then diluted to a concentration of 1% w/v of propofol. 7, 10 and 12% w/w drug loading levels were tested. All solutions were then filtered using 0.2 μm sterile filters and frozen in acetone/dry ice bath or in −80° C. freezer for at least 4 hours before being lyophilized for 48 hours. Solid lyophilized cakes of 7, 10 and 12% w/w were reconstituted by adding water for injection.
PVP-PDLLA (lot # POLYMER 1, POLYMER 2, POLYMER 3, POLYMER 4 and POLYMER 5) is dissolved directly in 100 mM sodium phosphate buffer, pH 7.4, at concentrations between 100 to 350 mg/mL. Propofol is added to the PVP-PDLLA solution and mixed until a homogenous solution is obtained. […]

humans or animals = conditions: cited from earlier work
[2] = room temperature; cited from earlier work

SMILES | appearance after reconstitution by addition of water [1] | half life (humans or animals; in vivo) [min] | time to hypnosis from the start of an administration (humans or animals; intravenous injection of a therapeutic dose) [s] | aqueous solubility [2] [µg/mL]
OCCOc1ccccc1 [2-phenoxyethanol] | Clear solutions | – | – | –
CC(C)c1cccc(C(C)C)c1O [Propofol, 2,6-bis-(1-methylethyl)phenol] | – | 10 to 15 | ≤ 40 | ~154 (≈ 864 µM)
Cc1ccc2ccccc2n1 [quinaldine] | Clear solutions | – | – | –
